Like-named read-outs stand apart in the source and are kept apart here.
Tested on: Human breast cancer MCF-7 and MDA-MB-231 cells
Test: Cytotoxicity assay (trypan blue exclusion)
Settings: for IC50: read-out: IC50 values
Protocol: Human breast cancer MCF-7 and MDA-MB-231 cells were purchased from the Food Industry Research and Development Institute (Hsinchu, Taiwan). The cells were cultured in Dulbecco's modified Eagle's medium (Gibco) containing 10% fetal bovine serum (FBS), a 1% dilution of penicillin-streptomycin, and 2 mM glutamine. Cells were maintained at 37° C. in a humidified atmosphere of 95% air and 5% CO2. However, MDA-MB-231 cells were cultured in L-15 medium (Gibco) containing 10% fetal bovine serum (FBS), a 1% dilution of penicillin-streptomycin, and 2 mM glutamine. Cells were maintained at 37° C. in a humidified atmosphere of 100% air and 0% CO2.
The cells (1.5×10^6 per dish) were cultured in a 100-mm dish and incubated for 14 h prior to treatment with DMSO or with different concentrations of propolins (2.5, 5.0, 10, and 20.0 μg/mL) for 48 h. The propolins were small compounds with their MWs ranging from 408-492 Da. These values were converted to their respective molarities.
The cells were counted and their viability was determined by trypan blue exclusion assay. The activity was shown as IC50 value (the concentration required to induce 50% cytotoxicity), and the average value was obtained from triplicate data points.

CC(C)=CCC/C(C)=C/Cc1cc([C@@H]2CC(=O)c3c(O)cc(O)cc3O2)cc(O)c1O [Propolin F, reference compound]
IC50 (concentration required to induce 50% cytotoxicity, 48 h treatment, human breast cancer cells, cell line not given, one representative of three independent experiments): 47.2 µM

CC(C)=CCC/C(C)=C/CC/C(C)=C/Cc1c(O)cc2c(c1O)C(=O)C[C@@H](c1ccc(O)c(O)c1)O2 [Propolin I, 5,7,3′,4′-tetrahydroxy-6-farnesylflavanone]
IC50 (Homo sapiens, 48 h): 10.2 µM
cytotoxic activity against human breast cancer cells (conclusion in words from Table 2): cytotoxic activity

CC(C)=CCC/C(C)=C/Cc1c(O)cc2c(c1O)C(=O)C[C@@H](c1ccc(O)cc1)O2 [Propolin J, 5,7,4′-trihydroxy-6-geranylflavanone]
IC50 (Homo sapiens, 48 h): 36.8 µM

From patent US20110054014A1, “PRENYLFLAVANONE COMPOUNDS AND USES THEREOF” (NatureWise Biotech & Medicals Corporation, priority 2008, published 2011)
